Experiment [1] can be described thus: Liver function markers in blood of C57BL6 mice. Format: in vivo, mouse. Particulars: C57BL6 mice (8 weeks old), oral, 50 or 150 mg/kg/day, 7 days, vs DMSO corn oil. As to the method: Compound #4 of DMSO corn oil was orally administered to C57BL6 mice (8 weeks old) at a dose of 50 mg/kg/day per kg of mouse weight for 7 days ([Group L]).
In addition, Compound #4 of DMSO corn oil was orally administered to C57BL6 mice (8 weeks old) at a dose of 150 mg/kg/day per kg of mouse weight for 7 days ([Group H]).
Further, DMSO corn oil was orally administered to C57BL6 mice (8 weeks old) for 7 days ([Control group]).

Experiment [2] relates to SIRTI protein. Nature of the experiment: Amount of SIRT1 protein in RH30 cells by Western blotting. In kind it is cell-based, human. Particulars: 30 μM, 24 hours, compared with Control group (DMSO). As to the method: RH30 cells (human rhabdomyosarcoma cell line; gli gene expression+, N-myc gene expression+) at 1×10^6 cell/dish were seeded and cultured in a dish containing 10 mL of a culture solution (low-glucose-containing DMEM medium (glucose concentration of 1.0 g/dL) to which 10 wt. % of FBS was added). One day later, Compound #5 was added to have a concentration of 30 μM, and the mixture was cultured for 24 hours ([Compound #5 addition group]). Compound #9, Compound #13, Compound #21, Compound #30, or Compound #35 as the present compound was added in place of Compound #5, and the mixture was cultured in the same manner, respectively, as [Compound #9 addition group], [Compound #13 addition group], [Compound #21 addition group], [Compound #30 addition group], and […].
On the other hand, as a control, DMSO (dimethyl sulfoxide) was added to have a concentration of 0.2 wt. %, and the mixture was cultured for 24 hours ([Control group]).
After completion of culture, the cells were recovered, disrupted by a typical method, and the amount of each of the proteins (SIRTI proteins, etc.) in the cells was detected by Western blotting. Further, the results of quantification of each band in the detection results of the Western blotting in FIG. 6 through normalization with the band of β-actin as a loading control are shown in FIG. 7.

Turning to `O=C(CC(C(=O)O)c1c[nH]c2ccccc12)c1ccc(F)cc1` (centres unmarked) [Compound #4], in experiment [1], the GOT in blood result is on record as “decreased” and the GPT in blood result is “decreased”.

In the case of `CC(=O)N1CCC(CC(C(=O)O)c2c[nH]c3ccccc23)CC1` (centres unmarked) [Compound #9], the “amount of SIRTI protein in cells” value in experiment [2] is on record as “increased”.

Regarding `CC(C)(C)OC(=O)NCCCCCCC(C)(C(=O)O)c1c[nH]c2ccccc12` (centres unmarked) [Compound #13], the “amount of SIRTI protein in cells” value in experiment [2] is reported as “increased”.

Consider `CCCCCCn1cc(CC(=O)O)c2ccccc21` [Compound #30], for which the “amount of SIRTI protein in cells” value in experiment [2] is reported as “increased”.

(Values after patent publication US20240307351A1, “AGENT FOR ANTI-AGING OR FOR CELLULAR REJUVENATION” (TOHOKU UNIVERSITY, priority 2022, published 2024).)
